These results are taken from ChEMBL document CHEMBL5143714, “Discovery of BMS-986339, a Pharmacologically Differentiated Farnesoid X Receptor Agonist for the Treatment of Nonalcoholic Steatohepatitis” (J Med Chem, 2022).

One data set has as its target T1, Bile acid receptor (Homo sapiens, UniProt Q96RI1).
T1 sequence (Q96RI1 whole entry): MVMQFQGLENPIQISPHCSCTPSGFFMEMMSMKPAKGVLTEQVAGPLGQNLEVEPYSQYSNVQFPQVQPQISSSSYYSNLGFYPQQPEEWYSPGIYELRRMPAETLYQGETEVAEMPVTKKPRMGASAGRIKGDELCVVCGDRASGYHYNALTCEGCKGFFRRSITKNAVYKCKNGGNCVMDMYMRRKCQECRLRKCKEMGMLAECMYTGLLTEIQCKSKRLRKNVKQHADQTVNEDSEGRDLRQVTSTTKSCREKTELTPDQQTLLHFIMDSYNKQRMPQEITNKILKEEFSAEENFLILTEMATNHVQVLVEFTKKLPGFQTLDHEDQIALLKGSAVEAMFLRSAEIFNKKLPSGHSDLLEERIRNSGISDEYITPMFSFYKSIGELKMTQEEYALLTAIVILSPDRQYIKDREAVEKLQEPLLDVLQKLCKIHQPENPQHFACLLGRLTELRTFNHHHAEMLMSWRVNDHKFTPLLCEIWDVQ
The experiment in a line: Agonist activity at Gal4-fused human FXR in HEK293 cells incubated for 15 min by luciferase reporter assay. The format is cell-based. In general terms: In a reporter assay the amount or activity of a reporter protein is the signal.

Data set [1] is described as follows: Metabolic stability in rat liver microsome assessed as parent compound remaining at […] measured after 10 mins. Type of data set: ADME. The note with it: liver microsomes, read-out: Stability. (Liver microsomes are vesicles of endoplasmic reticulum, rich in cytochrome P450 enzymes.)
Data set [2] in a line: Metabolic stability in human liver microsome assessed as parent compound remaining at […] measured after 10 mins. Type of data set: ADME. The note with it: liver microsomes, read-out: Stability.
Data set [3] has as its target T2, Cytochrome P450 2C9 (Homo sapiens, UniProt P11712). The experiment in a line: Inhibition of recombinant CYP2C9 (unknown origin) using fluorogenic substrate preincubated for 15 min followed by NADPH addition measured after 2 hrs by fluorescence method. Type of data set: ADME.
The target of data set [4] is T3, Cytochrome P450 2C19 (Homo sapiens, UniProt P33261). As to the kind of experiment: Inhibition of recombinant CYP2C19 (unknown origin) using fluorogenic substrate preincubated for 15 min followed by NADPH addition measured after 2 hrs by fluorescence method. The format is ADME.
Data set [5] can be described thus: Clearance in C57BL6 mouse at 1 mg/kg, iv. Type of data set: ADME, organism-based. The note with it: in vivo.
Data set [6] can be described thus: AUC (total) in C57BL6 mouse at 1 mg/kg, iv. The format is ADME, organism-based. Set-up: dose 1 mg/kg, route iv. The note with it: in vivo.
Data set [7] can be described thus: Oral bioavailability in C57BL6 mouse at 5 mg/kg. The note with it: in vivo. The format is ADME, organism-based.
In the next data set the test system is Mus musculus. The experiment in a line: Antifibrotic activity against bile duct ligation-induced liver cholestasis C57BL/6NTac mouse model assessed as reduction in hydroxyproline level in liver administered orally as single dose for 9 days and measured after 24 hrs post-last dose by picrosirius red staining method. Type of data set: functional, organism-based. The note with it: dose 0.3-10 mg/kg, route po, time 9.0 day, DDE = dose-dependent effect.

The target of another data set is Cytochrome P450 3A4 (Homo sapiens, UniProt P08684). The experiment in a line: Inhibition of CYP3A4 in human liver microsomes using fluorogenic substrate preincubated for 15 min followed by NADPH addition measured after 2 hrs by fluorescence based assay. Type of data set: ADME, Microsome.
The target in data set [8] is T3, Cytochrome P450 2C19. As to the kind of experiment: Inhibition of CYP2C19 in human liver microsomes using fluorogenic substrate preincubated for 15 min followed by NADPH addition measured after 2 hrs by fluorescence based assay. The format is ADME, Microsome.
The target of another data set is T4, Cytochrome P450 2C8 (Homo sapiens, UniProt P10632).
T4 sequence (P10632 whole entry): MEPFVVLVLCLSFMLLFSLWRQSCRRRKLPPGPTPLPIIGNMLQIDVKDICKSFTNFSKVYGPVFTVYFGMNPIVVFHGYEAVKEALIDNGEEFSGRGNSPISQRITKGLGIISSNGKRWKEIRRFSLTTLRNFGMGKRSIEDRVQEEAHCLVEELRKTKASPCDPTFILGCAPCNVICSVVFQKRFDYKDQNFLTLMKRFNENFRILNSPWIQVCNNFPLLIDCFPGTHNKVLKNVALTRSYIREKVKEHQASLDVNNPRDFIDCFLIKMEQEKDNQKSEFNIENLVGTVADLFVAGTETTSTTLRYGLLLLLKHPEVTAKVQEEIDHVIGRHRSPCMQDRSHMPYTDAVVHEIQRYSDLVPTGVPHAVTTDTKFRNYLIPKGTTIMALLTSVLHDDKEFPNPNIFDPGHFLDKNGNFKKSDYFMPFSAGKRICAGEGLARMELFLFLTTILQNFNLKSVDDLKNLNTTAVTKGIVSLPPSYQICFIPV
As to the kind of experiment: Inhibition of CYP2C8 in human liver microsomes using fluorogenic substrate preincubated for 15 min followed by NADPH addition measured after 2 hrs by fluorescence based assay. The format is ADME, Microsome.

Data set [9] has as its target T2, Cytochrome P450 2C9. The experiment in a line: Inhibition of CYP2C9 in human liver microsomes using fluorogenic substrate preincubated for 15 min followed by NADPH addition measured after 2 hrs by fluorescence based assay. The format is ADME, Microsome.
In data set [10] the target is T5, UDP-glucuronosyltransferase 1A1 (Homo sapiens, UniProt P22309).
T5 sequence (P22309 whole entry): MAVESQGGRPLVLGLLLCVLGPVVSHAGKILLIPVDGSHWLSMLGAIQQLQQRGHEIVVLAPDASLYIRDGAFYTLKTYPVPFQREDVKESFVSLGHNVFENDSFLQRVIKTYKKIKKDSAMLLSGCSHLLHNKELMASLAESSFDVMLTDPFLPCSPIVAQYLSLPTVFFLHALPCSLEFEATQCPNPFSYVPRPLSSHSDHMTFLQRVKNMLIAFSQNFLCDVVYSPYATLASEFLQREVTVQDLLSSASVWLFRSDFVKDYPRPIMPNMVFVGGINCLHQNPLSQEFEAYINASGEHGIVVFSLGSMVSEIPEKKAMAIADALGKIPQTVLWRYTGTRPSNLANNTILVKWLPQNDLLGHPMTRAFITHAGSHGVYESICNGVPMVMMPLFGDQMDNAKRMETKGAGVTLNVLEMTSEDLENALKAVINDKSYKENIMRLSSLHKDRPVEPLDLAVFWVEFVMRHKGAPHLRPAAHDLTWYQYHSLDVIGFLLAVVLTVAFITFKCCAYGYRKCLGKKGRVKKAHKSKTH
As to the kind of experiment: Inhibition of human UGT1A1.

For data set [11], the target named is Voltage-gated inwardly rectifying potassium channel KCNH2 (Homo sapiens, UniProt Q12809). As to the kind of experiment: Inhibition of hERG by patch clamp assay. The format is toxicity.
Voltage-gated inwardly rectifying potassium channel KCNH2, sequence (Q12809 whole entry): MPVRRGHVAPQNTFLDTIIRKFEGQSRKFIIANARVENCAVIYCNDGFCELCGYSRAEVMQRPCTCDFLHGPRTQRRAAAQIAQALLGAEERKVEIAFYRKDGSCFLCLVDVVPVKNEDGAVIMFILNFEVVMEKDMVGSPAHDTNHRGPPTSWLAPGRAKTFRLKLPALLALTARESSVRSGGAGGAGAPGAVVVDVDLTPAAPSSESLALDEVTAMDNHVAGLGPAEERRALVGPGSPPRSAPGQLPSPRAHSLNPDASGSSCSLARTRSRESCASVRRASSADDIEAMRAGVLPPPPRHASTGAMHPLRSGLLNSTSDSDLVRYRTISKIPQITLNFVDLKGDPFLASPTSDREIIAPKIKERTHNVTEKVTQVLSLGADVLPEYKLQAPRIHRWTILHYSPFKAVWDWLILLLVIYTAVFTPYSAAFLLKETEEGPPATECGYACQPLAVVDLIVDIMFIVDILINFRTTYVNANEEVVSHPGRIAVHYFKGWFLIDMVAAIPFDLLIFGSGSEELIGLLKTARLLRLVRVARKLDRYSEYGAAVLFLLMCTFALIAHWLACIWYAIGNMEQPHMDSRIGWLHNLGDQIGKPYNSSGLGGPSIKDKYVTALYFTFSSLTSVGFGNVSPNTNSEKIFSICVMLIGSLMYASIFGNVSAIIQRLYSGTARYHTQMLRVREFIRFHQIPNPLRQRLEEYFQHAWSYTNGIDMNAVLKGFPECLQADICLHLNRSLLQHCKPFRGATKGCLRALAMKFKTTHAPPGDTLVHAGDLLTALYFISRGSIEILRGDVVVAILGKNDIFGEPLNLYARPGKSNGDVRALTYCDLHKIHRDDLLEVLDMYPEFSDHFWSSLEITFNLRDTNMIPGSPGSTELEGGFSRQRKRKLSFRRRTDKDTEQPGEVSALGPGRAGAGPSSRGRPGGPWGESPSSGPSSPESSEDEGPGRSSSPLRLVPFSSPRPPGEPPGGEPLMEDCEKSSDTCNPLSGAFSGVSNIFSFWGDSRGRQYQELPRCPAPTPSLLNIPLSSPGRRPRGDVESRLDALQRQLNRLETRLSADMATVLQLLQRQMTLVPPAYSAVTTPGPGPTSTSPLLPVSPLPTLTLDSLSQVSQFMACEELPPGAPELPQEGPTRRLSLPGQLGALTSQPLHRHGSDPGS

T3 sequence (P33261 whole entry): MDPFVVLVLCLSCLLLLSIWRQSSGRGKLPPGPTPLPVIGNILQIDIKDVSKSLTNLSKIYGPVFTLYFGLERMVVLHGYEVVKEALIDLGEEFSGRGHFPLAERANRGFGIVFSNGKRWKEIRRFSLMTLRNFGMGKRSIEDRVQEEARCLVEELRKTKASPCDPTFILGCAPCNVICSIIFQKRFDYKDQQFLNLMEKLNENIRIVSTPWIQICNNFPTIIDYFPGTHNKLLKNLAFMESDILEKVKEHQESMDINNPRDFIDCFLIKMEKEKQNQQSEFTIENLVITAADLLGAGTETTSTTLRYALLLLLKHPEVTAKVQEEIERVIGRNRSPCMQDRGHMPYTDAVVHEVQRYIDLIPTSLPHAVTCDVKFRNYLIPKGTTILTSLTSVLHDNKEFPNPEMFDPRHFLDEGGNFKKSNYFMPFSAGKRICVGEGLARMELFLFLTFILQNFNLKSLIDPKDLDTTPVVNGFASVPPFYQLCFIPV
T2 sequence (P11712 whole entry): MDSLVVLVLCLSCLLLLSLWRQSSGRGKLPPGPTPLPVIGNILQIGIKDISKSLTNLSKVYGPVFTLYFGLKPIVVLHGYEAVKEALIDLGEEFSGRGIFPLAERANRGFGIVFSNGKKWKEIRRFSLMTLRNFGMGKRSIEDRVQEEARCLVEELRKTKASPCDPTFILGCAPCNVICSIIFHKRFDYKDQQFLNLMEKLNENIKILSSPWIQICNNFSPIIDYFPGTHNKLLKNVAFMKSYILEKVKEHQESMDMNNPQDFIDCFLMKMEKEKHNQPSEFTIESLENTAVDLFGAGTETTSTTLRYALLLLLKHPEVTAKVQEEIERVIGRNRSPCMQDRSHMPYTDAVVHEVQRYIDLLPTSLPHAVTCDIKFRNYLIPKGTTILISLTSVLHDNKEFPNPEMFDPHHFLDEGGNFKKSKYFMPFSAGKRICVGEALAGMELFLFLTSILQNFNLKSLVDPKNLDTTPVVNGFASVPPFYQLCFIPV
Cytochrome P450 3A4, sequence (P08684 whole entry): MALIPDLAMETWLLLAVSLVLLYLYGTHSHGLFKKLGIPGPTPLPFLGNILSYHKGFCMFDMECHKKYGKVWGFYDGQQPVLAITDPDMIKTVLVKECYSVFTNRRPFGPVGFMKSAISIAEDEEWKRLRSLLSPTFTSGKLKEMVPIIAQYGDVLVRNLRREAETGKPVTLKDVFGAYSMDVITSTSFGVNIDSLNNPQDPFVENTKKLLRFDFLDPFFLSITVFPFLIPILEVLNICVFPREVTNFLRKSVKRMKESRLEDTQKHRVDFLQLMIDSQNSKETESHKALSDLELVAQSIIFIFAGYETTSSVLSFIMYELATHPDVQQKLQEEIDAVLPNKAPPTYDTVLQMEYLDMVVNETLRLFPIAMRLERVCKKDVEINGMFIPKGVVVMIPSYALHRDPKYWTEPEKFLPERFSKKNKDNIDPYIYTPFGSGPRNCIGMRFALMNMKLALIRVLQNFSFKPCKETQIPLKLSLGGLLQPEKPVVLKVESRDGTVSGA

What is called EC50 is the concentration that produces a half-maximal response. High values mean a less potent agent, low ones a more potent agent. One may read the IC50 as the concentration at which inhibition is half-maximal. By clearance is commonly meant the rate of elimination divided by the concentration. Read a low clearance as inefficient removal. What is called AUC is the area under the concentration-time curve, a measure of exposure. Lower therefore signals less exposure. One may read the bioavailability as the share of a dose that reaches the circulation, judged against a reference dose that is usually intravenous. Read a high bioavailability as much systemic uptake. Consider `CC(C)(O)c1ccc(-c2cccc(N(CC34CCC(c5noc(C(C)(C)F)n5)(CC3)CC4)C(=O)[C@H]3C[C@](O)(C(F)(F)F)C3)c2)cc1`, for which the EC50 on Bile acid receptor was 34 nM. Further, the remaining at 10 min was 93% in data set [1] and 100% in data set [2]. For the same compound, the IC50 at Cytochrome P450 2C9 [3] is 5 µM; at Cytochrome P450 2C19 [4], 7 µM; against Cytochrome P450 3A4, greater than 20 µM; against Cytochrome P450 2C19 [8] it was greater than 20 µM; against Cytochrome P450 2C8, greater than 20 µM; at Cytochrome P450 2C9 [9] it was 8 µM. In addition, the IC50 in data set [10] was 1500 nM; in data set [11], 4.5 µM. This compound came in with a clearance in data set [5] of 1.6 mL/min/kg. In addition, the AUC in data set [6] amounted to 16.4 µM·h. In data set [7], this compound had a bioavailability of 69%. Also, in the data set with Mus musculus, the Activity entry was “Dde”.
